Measured values from ChEMBL document CHEMBL3044856, “Molecular docking of glycogen synthase kinase3- inhibitor oleanolic acid and its wound-healing activity in rats” (Med Chem Res, 2013).
Calls of active or inactive are those of the source. No cut-off for these calls is given here.

Experiments:
Mus musculus [1] = assay: Wound-healing activity in Swiss albino Mus musculus (mouse) incision wound model assessed as increase in tensil strength of incision wound at 12 mg/kg/day, ip measured on day 10 (reference value: 356.13 +/- 14.55 g); assay type: functional; conditions: route intraperitoneal
Mus musculus [2] = assay: Wound-healing activity in Swiss albino Mus musculus (mouse) excision wound model assessed as closure of excision wound area at 3 mg/ml, ip measured on day 8 (reference value: 54.64 +/- 1.17%); assay type: functional
Mus musculus [3] = assay: Wound-healing activity in Swiss albino Mus musculus (mouse) dead space wound model assessed as increase in tissue breaking strength at 3 mg/ml, ip measured on day 10 (reference value: 366.32 +/- 14.40 g); assay type: functional
Mus musculus [4] = assay: Wound-healing activity in Swiss albino Mus musculus (mouse) excision wound model assessed as closure of excision wound area at 3 mg/ml, ip measured on day 16 (reference value: 81.36 +/- 0.83%); assay type: functional
Mus musculus [5] = assay: Wound-healing activity in Swiss albino Mus musculus (mouse) dead space wound model assessed as increase in hydroxyproline content measured per 100 g of tissue at 3 mg/ml, ip measured on day 10 (reference value: 1411.15 +/- 6.26 ug); assay type: functional
Mus musculus [6] = assay: Wound-healing activity in Swiss albino Mus musculus (mouse) excision wound model assessed as time required for complete epithelialization of excision wound at 3 mg/ml, ip (reference value: 22.75 +/- 0.13 days); assay type: functional
Mus musculus [7] = assay: Wound-healing activity in Swiss albino Mus musculus (mouse) assessed as increase in collagenation in granulation tissue at 3 mg/ml, ip measured on day 10 by hematoxylin and eosin staining-based histological analysis relative to untreated control; assay type: functional, organism-based
Mus musculus [8] = assay: Wound-healing activity in Swiss albino Mus musculus (mouse) dead space wound model assessed as increase in dry weight of granuloma tissue at 3 mg/ml, ip measured on day 10 (reference value: 11.52 +/- 0.9 mg); assay type: functional
Mus musculus [9] = assay: Wound-healing activity in Swiss albino Mus musculus (mouse) excision wound model assessed as closure of excision wound area at 3 mg/ml, ip measured on day 4 (reference value: 25.32 +/- 3.31%); assay type: functional
Mus musculus [10] = assay: Wound-healing activity in Swiss albino Mus musculus (mouse) excision wound model assessed as closure of excision wound area at 3 mg/ml, ip measured on day 12 (reference value: 66.04 +/- 0.94%); assay type: functional
Mus musculus [11] = assay: Wound-healing activity in Swiss albino Mus musculus (mouse) assessed as decrease in macrophage accumulation in granulation tissue at 3 mg/ml, ip measured on day 10 by hematoxylin and eosin staining-based histological analysis relative to untreated control; assay type: functional, organism-based
Mus musculus [12] = assay: Wound-healing activity in Swiss albino Mus musculus (mouse) dead space wound model assessed as increase in wet weight of granuloma tissue at 3 mg/ml, ip measured on day 10 (reference value: 79.56 +/- 1.05 mg); assay type: functional
Mus musculus [13] = assay: Acute toxicity in Swiss albino Mus musculus (mouse) assessed as abnormal behavior up to 120 mg/kg, ip; assay type: organism-based; set-up: dose 120 mg/kg, route intraperitoneal; conditions: in vivo
Mus musculus [14] = assay: Acute toxicity in Swiss albino Mus musculus (mouse) assessed as mortality up to 120 mg/kg, ip; assay type: organism-based; set-up: dose 120 mg/kg, route intraperitoneal; conditions: in vivo
Mus musculus [15] = assay: Wound-healing activity in ip dosed Swiss albino Mus musculus (mouse) excision wound model assessed as closure of excision wound area measured on day 4 (reference value: 25.32 +/- 3.31%); assay type: functional
Mus musculus [16] = assay: Wound-healing activity in ip dosed Swiss albino Mus musculus (mouse) dead space wound model assessed as increase in hydroxyproline content measured per 100 g of tissue measured on day 10 (reference value: 1411.15 +/- 6.26 ug); assay type: functional
Mus musculus [17] = assay: Wound-healing activity in ip dosed Swiss albino Mus musculus (mouse) dead space wound model assessed as increase in tissue breaking strength measured on day 10 (reference value: 366.32 +/- 14.40 g); assay type: functional
Mus musculus [18] = assay: Wound-healing activity in ip dosed Swiss albino Mus musculus (mouse) assessed as decrease in macrophage accumulation in granulation tissue measured on day 10 by hematoxylin and eosin staining-based histological analysis relative to untreated control; assay type: functional, organism-based
Mus musculus [19] = assay: Wound-healing activity in ip dosed Swiss albino Mus musculus (mouse) incision wound model assessed as increase in tensil strength of incision wound measured on day 10 (reference value: 356.13 +/- 14.55 g); assay type: functional
Mus musculus [20] = assay: Wound-healing activity in ip dosed Swiss albino Mus musculus (mouse) excision wound model assessed as time required for complete epithelialization of excision wound (reference value: 22.75 +/- 0.13 days); assay type: functional
Mus musculus [21] = assay: Wound-healing activity in ip dosed Swiss albino Mus musculus (mouse) dead space wound model assessed as increase in wet weight of granuloma tissue measured on day 10 (reference value: 79.56 +/- 1.05 mg); assay type: functional
Mus musculus [22] = assay: Wound-healing activity in ip dosed Swiss albino Mus musculus (mouse) dead space wound model assessed as increase in dry weight of granuloma tissue measured on day 10 (reference value: 11.52 +/- 0.9 mg); assay type: functional
Mus musculus [23] = assay: Wound-healing activity in ip dosed Swiss albino Mus musculus (mouse) excision wound model assessed as closure of excision wound area measured on day 16 (reference value: 81.36 +/- 0.83%); assay type: functional
Mus musculus [24] = assay: Wound-healing activity in ip dosed Swiss albino Mus musculus (mouse) excision wound model assessed as closure of excision wound area measured on day 8 (reference value: 54.64 +/- 1.17%); assay type: functional
Mus musculus [25] = assay: Wound-healing activity in ip dosed Swiss albino Mus musculus (mouse) excision wound model assessed as closure of excision wound area measured on day 12 (reference value: 66.04 +/- 0.94%); assay type: functional
Mus musculus [26] = assay: Wound-healing activity in ip dosed Swiss albino Mus musculus (mouse) assessed as increase in collagenation in granulation tissue measured on day 10 by hematoxylin and eosin staining-based histological analysis relative to untreated control; assay type: functional, organism-based

CC1(C)CC[C@]2(C(=O)O)CC[C@]3(C)C(=CC[C@@H]4[C@@]5(C)CC[C@H](O)C(C)(C)[C@@H]5CC[C@]43C)[C@@H]2C1 [OLEANOLIC_ACID]
Activity (Mus musculus [1]): 580.83 g | Activity (Mus musculus [2]): 79.11% | Activity (Mus musculus [3]): 599.08 g | Activity (Mus musculus [4]): 96.82% | Activity (Mus musculus [5]): 2124.91 µg | Time (Mus musculus [6]): 18.48 days | Activity (Mus musculus [7]): Active | Activity (Mus musculus [8]): 26.25 mg | Activity (Mus musculus [9]): 36.13% | Activity (Mus musculus [10]): 86.06% | Activity (Mus musculus [11]): Active | Activity (Mus musculus [12]): 127.12 mg | Activity (Mus musculus [13]): Non-toxic | Activity (Mus musculus [14]): Non-toxic

Nc1ccc(S(=O)(=O)Nc2nccs2)cc1 [SULFATHIAZOLE]
Activity (Mus musculus [15]): 39.94% | Activity (Mus musculus [16]): 2427.33 µg | Activity (Mus musculus [17]): 617.39 g | Activity (Mus musculus [18]): Active | Activity (Mus musculus [19]): 582.04 g | Time (Mus musculus [20]): 18.36 days | Activity (Mus musculus [21]): 131.4 mg | Activity (Mus musculus [22]): 28.42 mg | Activity (Mus musculus [23]): 96.94% | Activity (Mus musculus [24]): 74.54% | Activity (Mus musculus [25]): 84.46% | Activity (Mus musculus [26]): Active
